Data on five molecules can be found in patent US11207312B2, “Metallo-beta-lactamase inhibitors and methods of use thereof” (priority 2017, dated 2021).

Data set [1] addresses NDM-1 (Klebsiella pneumoniae, UniProt C7C422). In words: biochemical. It is filed as biochemical. The settings on record: CCF2-FA fluorescence assay, 2 hours at 25° C. The method, boiled down: (§1)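 IC50s come from 4-parameter fits of inhibition versus inhibitor concentration, tested from 20 μM down to 0.00063 μM. Enzyme, CCF2-FA (1.25 μM) and inhibitor react 2 h at 25° C, pH 7, with 10 μM ZnSO4 and 0.005% Tween-20.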

Data set [2] has as its target IMP-1 (Serratia marcescens, UniProt P52699). The experiment in a line: biochemical. The settings on record: CCF2-FA fluorescence assay, 2 hours at 25° C.; read-out: IMP1 IC50. An outline of the steps:
as §1

The target in data set [3] is VIM-1 (Pseudomonas aeruginosa (strain ATCC 15692 / DSM 22644 / CIP 104116 / JCM 14847 / LMG 12228 / 1C / PRS 101 / PAO1), UniProt A0A0F7KYQ8). The experiment in a line: biochemical. The settings on record: CCF2-FA fluorescence assay, 2 hours at 25° C.; read-out: VIM1 IC50. The method, boiled down:
as §1

Data set [4] concerns the target VIM-2 (Escherichia coli, UniProt Q5U7L7). The experiment in a line: biochemical. The settings on record: CCF2-FA fluorescence assay; read-out: VIM2 IC50.
Data set [5] deals with Escherichia coli expressing NDM-1 (CLB30016). The format is cell-based. The settings on record: with imipenem 1 μg/ml; 95% inhibition of bacterial growth. The method, boiled down:
(§2)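 Clinical MBL-producing strains grown overnight at 35° C, diluted 1:100 into CAMHB, then exposed to test compound with imipenem at 1 μg/ml for 22–24 h at 35° C. Absorbance read-out; MITC95 is the lowest compound concentration giving 95% growth inhibition with imipenem.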

Data set [6] concerns Klebsiella pneumoniae expressing VIM-1 (IHMA599644). It is filed as cell-based. The settings on record: with imipenem 1 μg/ml; 95% inhibition of bacterial growth. The method, boiled down:
as §2

For data set [7], the system named is Serratia marcescens expressing IMP-1 (CL5741). It is filed as cell-based. The settings on record: with imipenem 1 μg/ml; 95% inhibition of bacterial growth. An outline of the steps: as §2
Data set [8] has as its system P. aeruginosa MB9798 (efflux+, IMP-1 plasmid). The settings on record: for MB9798 MITC95 P. aeruginosa uM Efflux WT: efflux + (MB9798) strain, imipenem at 2 μg/mL, in the presence of a class A, C, D serine β-lactamase inhibitor closely related to relebactam; for Efflux ratio: fold difference between efflux+ (MB9798) and efflux− (MB9799) strains. An outline of the steps:
(§3)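 Isogenic P. aeruginosa PAO1 strains (efflux+ and multiple-efflux-pump-disrupted) carrying plasmid IMP-1, with inducible AmpC, tested by broth microdilution. Imipenem and/or ceftazidime fixed, usually at CLSI breakpoint, plus fixed class A/C β-lactamase inhibitor; titrated MBL inhibitor concentration restoring susceptibility recorded and compared between strains as efflux fold difference.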

In data set [9] the test system is P. aeruginosa MB9799 (efflux-, IMP-1 plasmid). The format is cell-based, Pseudomonas aeruginosa. The settings on record: efflux − (MB9799) strain; imipenem at 2 μg/mL; in the presence of a class A, C, D serine β-lactamase inhibitor closely related to relebactam. The method, boiled down: as §3

Chain of NDM-1 (C7C422 whole entry, looked up, species assumed): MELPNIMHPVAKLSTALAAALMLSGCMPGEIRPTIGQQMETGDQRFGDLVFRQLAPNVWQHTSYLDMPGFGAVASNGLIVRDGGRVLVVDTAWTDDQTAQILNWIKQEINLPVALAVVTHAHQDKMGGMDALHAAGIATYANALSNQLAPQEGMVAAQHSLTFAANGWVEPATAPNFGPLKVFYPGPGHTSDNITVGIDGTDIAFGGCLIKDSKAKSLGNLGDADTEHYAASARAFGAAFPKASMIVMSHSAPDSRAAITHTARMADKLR
Chain of IMP-1 (P52699 whole entry, looked up, species assumed): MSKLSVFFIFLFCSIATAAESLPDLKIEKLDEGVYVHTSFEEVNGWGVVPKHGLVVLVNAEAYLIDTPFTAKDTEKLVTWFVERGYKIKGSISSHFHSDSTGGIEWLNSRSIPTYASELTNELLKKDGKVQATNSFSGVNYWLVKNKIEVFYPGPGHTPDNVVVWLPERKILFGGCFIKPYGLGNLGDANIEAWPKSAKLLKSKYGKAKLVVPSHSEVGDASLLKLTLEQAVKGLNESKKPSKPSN

As to `NS(=O)(=O)c1c(S(=O)(=O)N[C@@H]2CCNC2)ccc(NCCN2CCOCC2)c1-c1nnn[nH]1` [Example 64, 4-[(2-morpholin-4-ylethyl)amino]-N1-[(3R)-pyrrolidin-3-yl]-3-(1H-tetrazol-5-yl)benzene-1,2-disulfonamide], the half-inhibitory concentration (IC50) (in general, the concentration that gives 50% inhibition) in data set [1] turned out to be 5.51 nM; in data set [2], 3.26 nM; in data set [3], 1.62 nM; in [4], 8.19 nM. Besides, the “CLB30016 E. coli MITC95 NDM” value in data set [5] came to 1.56 µM. Besides, the “IHMA599644 K. pneumoniae MITC95 VIM” value in [6] is 6.25 µM. Besides, the “CL5741 S. marcescens MITC95 IMP” value in [7] was 1.56 µM. Also, the “MB9798 MITC95 P. aeruginosa uM Efflux WT” value in data set [8] was 25.00 µM. For the same molecule, the Efflux ratio in [8] amounted to 15.99. The “MB9799 MITC95 P. aeruginosa uM Efflux Mutant” value in [9] was determined as 1.56 µM.
On to `CN1CCN(c2ccc(S(=O)(=O)N[C@@H]3CCNC3)c(S(N)(=O)=O)c2-c2nnn[nH]2)CC1=O` [Example 65, 4-(4-methyl-3-oxopiperazin-1-yl)-N1-[(3R)-pyrrolidin-3-yl]-3-(1H-tetrazol-5-yl)benzene-1,2-disulfonamide], for which the IC50 in [1] was 1.28 nM; in data set [2], 2.26 nM; in data set [3], 0.22 nM; in data set [4] it was 1 nM. Also, the “CLB30016 E. coli MITC95 NDM” value in [5] came out at 3.13 µM. Also, the “IHMA599644 K. pneumoniae MITC95 VIM” value in data set [6] was found to be 6.25 µM. Further, the “CL5741 S. marcescens MITC95 IMP” value in [7] is 3.13 µM. In data set [8], the “MB9798 MITC95 P. aeruginosa uM Efflux WT” value stood at 3.13 µM. Also, in data set [8], the Efflux ratio is reported as 2.00. Further, the “MB9799 MITC95 P. aeruginosa uM Efflux Mutant” value in [9] is 1.56 µM.
Regarding `NS(=O)(=O)c1c(S(=O)(=O)N[C@@H]2CCNC2)ccc(NC2CCOCC2)c1-c1nnn[nH]1` [Example 66, N1-[(3R)-pyrrolidin-3-yl]-4-(tetrahydro-2H-pyran-4-ylamino)-3-(1H-tetrazol-5-yl)benzene-1,2-disulfonamide], the IC50 in [1] turned out to be 0.62 nM; in data set [2] it was 4.48 nM; in data set [3], 1.76 nM; in data set [4], 3.7 nM. Besides, in data set [5], the “CLB30016 E. coli MITC95 NDM” value is 6.25 µM. Moreover, the “IHMA599644 K. pneumoniae MITC95 VIM” value in [6] came to 6.25 µM. Also, the “CL5741 S. marcescens MITC95 IMP” value in data set [7] is 3.13 µM. In addition, the “MB9798 MITC95 P. aeruginosa uM Efflux WT” value in data set [8] was 25.00 µM. Moreover, in [8], the Efflux ratio is reported as 15.99. In addition, the “MB9799 MITC95 P. aeruginosa uM Efflux Mutant” value in data set [9] was 1.56 µM.
Turning to `CN(C)[C@H]1CCN(c2ccc(S(=O)(=O)N[C@@H]3CCNC3)c(S(N)(=O)=O)c2-c2nnn[nH]2)C1` [Example 67, 4-[(3S)-3-(dimethylamino)pyrrolidin-1-yl]-N1-[(3R)-pyrrolidin-3-yl]-3-(1H-tetrazol-5-yl)benzene-1,2-disulfonamide], the IC50 in data set [1] came to 85 nM; in data set [2], 60.7 nM; in [3], 4.32 nM; in [4], 18.5 nM. In addition, in data set [5], the “CLB30016 E. coli MITC95 NDM” value was 1.56 µM. For the same molecule, the “IHMA599644 K. pneumoniae MITC95 VIM” value in [6] worked out at 1.56 µM. In addition, the “CL5741 S. marcescens MITC95 IMP” value in data set [7] turned out to be 3.13 µM. The “MB9798 MITC95 P. aeruginosa uM Efflux WT” value in data set [8] turned out to be 12.50 µM. In addition, the Efflux ratio in [8] was 8.00. The “MB9799 MITC95 P. aeruginosa uM Efflux Mutant” value in data set [9] was 1.56 µM.
Turning to `CN(C)[C@@H]1CCN(c2ccc(S(=O)(=O)N[C@@H]3CCNC3)c(S(N)(=O)=O)c2-c2nnn[nH]2)C1` [Example 68, 4-[(3R)-3-(dimethylamino)pyrrolidin-1-yl]-N1-[(3R)-pyrrolidin-3-yl]-3-(1H-tetrazol-5-yl)benzene-1,2-disulfonamide], the IC50 in [1] came to 22.1 nM; in data set [2], 16.2 nM; in data set [3], 2.11 nM; in data set [4], 17.8 nM. For the same molecule, in data set [5], the “CLB30016 E. coli MITC95 NDM” value stood at 0.78 µM. Moreover, the “IHMA599644 K. pneumoniae MITC95 VIM” value in data set [6] was 1.56 µM. Moreover, the “CL5741 S. marcescens MITC95 IMP” value in [7] was determined as 1.56 µM. In addition, the “MB9798 MITC95 P. aeruginosa uM Efflux WT” value in [8] was found to be 12.50 µM. Moreover, the Efflux ratio in data set [8] was 8.00. In addition, the “MB9799 MITC95 P. aeruginosa uM Efflux Mutant” value in data set [9] was 1.56 µM.
